Earlier results as cited in patent publication US5972639A, “Fluorescence-based assays for measuring cell proliferation” (Irori, priority 1997, dated 1999).

Tests used:
Settings in all cases: cited from earlier work
Alkaline phosphatase = system: Alkaline phosphatase
Acid phosphatase = system: Acid phosphatase
[1] = biological target: Alkaline phosphatase (E. coli) (Escherichia coli, UniProt P00634)
Chain of Alkaline phosphatase (E. coli) (P00634 22-471): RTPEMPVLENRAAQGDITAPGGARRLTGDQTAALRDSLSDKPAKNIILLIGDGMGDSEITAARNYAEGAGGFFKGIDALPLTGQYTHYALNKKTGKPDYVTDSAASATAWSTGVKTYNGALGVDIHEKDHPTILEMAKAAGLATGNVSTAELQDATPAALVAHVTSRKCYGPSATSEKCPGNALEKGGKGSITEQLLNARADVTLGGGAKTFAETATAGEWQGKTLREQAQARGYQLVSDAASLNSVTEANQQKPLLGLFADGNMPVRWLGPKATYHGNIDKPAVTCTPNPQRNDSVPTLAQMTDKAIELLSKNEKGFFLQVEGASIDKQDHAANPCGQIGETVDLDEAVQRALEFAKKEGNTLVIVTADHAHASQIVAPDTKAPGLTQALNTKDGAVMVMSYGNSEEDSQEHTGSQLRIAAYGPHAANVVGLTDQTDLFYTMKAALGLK

Row | SMILES | Alkaline phosphatase, products identified (Alkaline phosphatase) | Acid phosphatase, products identified (Acid phosphatase) | Km [1]
1 | CC(=O)NCCSP(=O)(O)O [N-Acetylcysteamine S-phosphate] | N-Acetylcysteamine | No cleavage | –
2 | O=[N+]([O-])c1ccc(OP(=O)(O)O)cc1 [p-NPP, p-nitrophenyl phosphate] | – | – | 94 µM
3 | COC(=O)CCSP(=O)(O)O [S-[2-(Methoxy-carboxyl)ehtyl] phosphorothioate] | d, ^32 Pi | No cleavage | –
